# Laboratory results from ChEMBL document CHEMBL4184107, “Structure based design of nicotinamide phosphoribosyltransferase (NAMPT) inhibitors from a phenotypic screen” (Bioorg Med Chem Lett, 2018).
# Columns and labels:
# [1] = Clearance in mouse liver microsomes; type: ADME, microsome; conditions: read-out: CLH
# [2] = Permeability of the compound by PAMPA; type: ADME
# [3] = Volume of distribution at steady state in nude mouse at 1 mg/kg, iv by HPLC-MS/MS analysis; type: ADME, organism-based; conditions: in vivo, read-out: Vdss
# [4] = AUC in nude mouse at 1 mg/kg, iv by HPLC-MS/MS analysis; type: ADME, organism-based; conditions: in vivo
# [5] = Half life in nude mouse at 1 mg/kg, iv by HPLC-MS/MS analysis; type: ADME, organism-based; conditions: in vivo
# [6] = AUC in nude mouse at 10 mg/kg, po by HPLC-MS/MS analysis; type: ADME, organism-based; conditions: in vivo
# [7] = Clearance in nude mouse at 1 mg/kg, iv by HPLC-MS/MS analysis; type: ADME, organism-based; conditions: in vivo
# [8] = Tmax in nude mouse at 10 mg/kg, po by HPLC-MS/MS analysis; type: ADME, organism-based; conditions: in vivo
# [9] = Cmax in nude mouse at 10 mg/kg, po by HPLC-MS/MS analysis; type: ADME, organism-based; set-up: dose 10 mg/kg, route oral; conditions: in vivo
# [10] = Oral bioavailability in nude mouse at 10 mg/kg by HPLC-MS/MS analysis; type: ADME, organism-based; conditions: in vivo
# [11] = Half life in mouse microsomes; type: ADME, Microsome
# [12] = Tmax in nude mouse at 15 mg/kg, po by HPLC-MS/MS analysis; type: ADME, organism-based; conditions: in vivo
# [13] = AUC in nude mouse at 15 mg/kg, po by HPLC-MS/MS analysis; type: ADME, organism-based; conditions: in vivo
# [14] = Cmax in nude mouse at 15 mg/kg, po by HPLC-MS/MS analysis; type: ADME, organism-based; set-up: dose 15 mg/kg, route oral; conditions: in vivo
SMILES,microsomal CLint [1],permeability [2],other results
C[C@H](NC(=O)c1ccccn1)c1ccc(NC(=O)[C@H]2C[C@@H]2c2cccnc2)cc1,< 3.42 µL/min/mg,Permeable,
C[C@H](NC(=O)c1ccc(F)cc1)c1ccc(NC(=O)[C@H]2C[C@@H]2c2cccnc2)cc1,13.7 µL/min/mg,Permeable,
C[C@H](NC(=O)c1ccccc1)c1ccc(NC(=O)[C@H]2C[C@@H]2c2cccnc2)cc1,148 µL/min/mg,Permeable,Vd [3]: 0.5 L/kg; AUC [4]: 6.18 µM·h; half-life [5]: 1.5 h; AUC [6]: 19.2 µM·h; clearance [7]: 6.8 mL/min/kg; Tmax [8]: 0.5 h; Cmax [9]: 12.7 µM; bioavailability [10]: 31%
C[C@H](NC(=O)c1ccc(C#N)cc1)c1ccc(NC(=O)[C@H]2C[C@@H]2c2cccnc2)cc1,53 µL/min/mg,Impermeable,
C[C@H](NC(=O)c1ccc(CN2CCOCC2)cc1)c1ccc(NC(=O)[C@H]2C[C@@H]2c2cccnc2)cc1,,Impermeable,half-life [11]: 7.67 h
O=C(NCc1ccc(S(=O)(=O)c2cccc(Cl)c2)cc1)c1cc2cnccc2[nH]1,,,Tmax [12]: 1 h; AUC [13]: 9.2 µM·h; Cmax [14]: 2.07 µM

# Second part, led by results:
microsomal CLint [1],permeability [2],SMILES,other results
25.1 µL/min/mg,Impermeable,C[C@H](NC(=O)C1CCOCC1)c1ccc(NC(=O)[C@H]2C[C@@H]2c2cccnc2)cc1,
65.4 µL/min/mg,Permeable,C[C@H](NC(=O)[C@@H]1CCCN1C)c1ccc(NC(=O)[C@H]2C[C@@H]2c2cccnc2)cc1,
43.2 µL/min/mg,Impermeable,COCC(=O)N[C@@H](C)c1ccc(NC(=O)[C@H]2C[C@@H]2c2cccnc2)cc1,
38.4 µL/min/mg,Permeable,C[C@H](NC(=O)c1ncccn1)c1ccc(NC(=O)[C@H]2C[C@@H]2c2cccnc2)cc1,
,Impermeable,CCC(=O)N[C@@H](C)c1ccc(NC(=O)[C@H]2C[C@@H]2c2cccnc2)cc1,half-life [11]: 35 h
83.7 µL/min/mg,Impermeable,C[C@H](NC(=O)CC(F)(F)F)c1ccc(NC(=O)[C@H]2C[C@@H]2c2cccnc2)cc1,
